Data: patent publication US8969408B2, “Use of lignan-type compounds or extract of nutmeg or aril of nutmeg comprising the same” (Biocare Co., Ltd., priority 2007, dated 2015)

What was measured:
Format in all cases: cell-based
[1] = tested on: Melan-a cells; assay: Melanin production inhibition activity in Melan-a cells
Protocol: Specifically, Melan-a cells were placed on a 6-well plate (melanin quantitated) at a concentration of 2×10^5 cells/mL (final volume=3 mL) and cultured in a 10% CO2 incubator (MCO-20AIC, Sanyo) at 37° C., using RPMI 1640 containing 10% FBS and 2 μM TPA (phorbol-12-myristate 13-acetate), for 24 hours. After removing the culture medium, the nutmeg ethanol extract prepared in Example 1-1 was added to RPMI 1640 medium and treated every day for 3 days. 5 days later, the culture medium was removed from the 6-well plate and, after treating with 0.25% trypsin-EDTA solution (Sigma Chemical Co.), cell pellets were collected and transferred to a 1.5 mL tube. After centrifuging at 10,000 rpm for 10 minutes, the supernatant was removed. Thus obtained pellets were dried at 60° C. and added to 100 μL of 1N NaOH in order to dissolve melanin contained in the cells. The solution was diluted with PBS and absorbance was measured at 475 nm using an ELISA reader. Melanin content was calculated according to the following Equation 1. The group to which the nutmeg ethanol extract was not used served as the control group. [formula] […] Melan-a cells were treated with the […] isolated in Example 2-1, and the degree of melanin production was measured in the same manner as Test Example 1-1.

[2] = target: T1, tyrosinase (Mus musculus, UniProt P11344); assay: Tyrosinase inhibition activity (DOPA chrome production) in treated Melan-a cells
T1 construct: endogenous in cells; host or cells: Melan-a cells (melanocytes)
T1 sequence (P11344 19-533): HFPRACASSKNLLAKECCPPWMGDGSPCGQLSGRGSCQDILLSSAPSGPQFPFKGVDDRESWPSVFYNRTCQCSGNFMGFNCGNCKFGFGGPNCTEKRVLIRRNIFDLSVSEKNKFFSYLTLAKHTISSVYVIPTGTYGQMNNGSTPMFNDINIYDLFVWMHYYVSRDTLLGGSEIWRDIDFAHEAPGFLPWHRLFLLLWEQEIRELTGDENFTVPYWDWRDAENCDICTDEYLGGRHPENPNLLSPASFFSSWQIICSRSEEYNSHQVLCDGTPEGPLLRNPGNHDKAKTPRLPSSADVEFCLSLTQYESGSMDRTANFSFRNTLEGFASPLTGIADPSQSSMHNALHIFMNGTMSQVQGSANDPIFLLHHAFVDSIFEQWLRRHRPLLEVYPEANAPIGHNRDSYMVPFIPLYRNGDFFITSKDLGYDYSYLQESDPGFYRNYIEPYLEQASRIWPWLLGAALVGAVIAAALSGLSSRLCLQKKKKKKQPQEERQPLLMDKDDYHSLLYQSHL
Protocol: 5 days later, the culture medium was removed from the 6-well plate and, after treating with 0.25% trypsin-EDTA solution (Sigma Chemical Co.), cell pellets were collected and transferred to a 1.5 mL tube. After adding 200 μL of phosphate buffer (pH 6.8) followed by centrifuging at 10,000 rpm for 10 minutes, the supernatant was collected. 150 μL of the supernatant was moved to a 96-well microplate and 50 μL of catechol was added. After culturing at 37° C. for 30 minutes, the amount of produced DOPA chrome was determined by measuring absorbance at 490 nm using a microplate reader.

[3] = tested on: tyrosinase-related protein 1 (TRP-1); assay: Inhibition of expression of TRP-1 (Western blotting), Melan-a cells; settings: result in words
Protocol: (§1) Western blotting and Bradford protein assay were carried out in order to investigate if the nutmeg ethanol extract prepared in Example 1-1 inhibits the expression of tyrosinase, tyrosinase-related protein 1 (TRP-1) and tyrosinase-related proteins 2 (TRP-2).
(§2) Specifically, proteins were extracted from the cells treated in Test Example 1-1 with the nutmeg ethanol extract and subjected to electrophoresis in 10% SDS-polyacrylamide gel. Then, the proteins were transferred from the gel to a nitrocellulose membrane. After treating with 5% skim milk at room temperature for 1 hour, primary antibodies of tyrosinase, TRP-1 and TRP-2 diluted in 5% skim milk to 1:1000 were added and allowed to be incubated at room temperature for 2 hours. After the incubation, the membrane was washed with Tris-buffer saline Tween 20(TBST) twice, for 10 minutes per each, while shaking. Secondary antibodies which recognize the primary antibodies, diluted in 5% skim milk to 1:1000, were added and allowed to be incubated at room temperature for 1 hour. As for the primary antibodies, the membrane was washed with TBST three times, for 10 minutes per each, while shaking, and subjected to development by chemiluminescence.
(§3) Melan-a cells were treated with the macelignan isolated in Example 2-1, and it was investigated if the expression of tyrosinase, TRP-1 and TRP-2 was inhibited, in the same manner as Test Example 3-1.

[4] = tested on: tyrosinase; assay: Inhibition of expression of tyrosinase (Western blotting), Melan-a cells; settings: result in words
Protocol: as §1, §2, §3

[5] = tested on: tyrosinase-related proteins 2 (TRP-2); assay: Inhibition of expression of TRP-2 (Western blotting), Melan-a cells; settings: result in words
Protocol: as §1, §2, §3

Row | DOPA chrome production inhibition ([2]; concentration not given) | SMILES | inhibition at 50 µM ([1]; 50 μM) [%] | melanin production inhibition activity (FIG. 1, FIG. 2) ([1]; result in words, P<0.01) | expression of TRP-1 (FIG. 5, FIG. 6) [3] | DOPA chrome production / tyrosinase activity (FIG. 3, FIG. 4) ([2]; result in words, P<0.01) | expression of tyrosinase (FIG. 5, FIG. 6) [4] | expression of TRP-2 (FIG. 5, FIG. 6) [5]
1 | about 60.04% | C/C=C/c1cc(OC)c2c(c1)[C@@H](C)[C@H](c1ccc3c(c1)OCO3)O2 [licarin E, 5-(7-methoxy-3-methyl-5-propenyl-2,3-dihydro-benzofuran-2-yl)-benzo[1,3]dioxole] | ~58.4 |  |  |  |  | 
2 |  | COc1cc(C[C@H](C)[C@H](C)Cc2ccc3c(c2)OCO3)ccc1O [macelignan, 4-((2S,3R)-4-benzo[1,3]dioxol-5-yl-2,3-dimethyl-butyl)-2-methoxyphenol] |  | superior melanin production inhibition activity | could inhibit the expression | superior DOPA chrome production inhibition activity | could inhibit the expression | could inhibit the expression
